Legend:
Type in all cases: functional, cell-based
[1] = target: T1, Solute carrier organic anion transporter family member 1B3 (Homo sapiens, UniProt Q9NPD5); assay: (§1) TP_TRANSPORTER: uptake in OATP8-expressing HEK293 cells; details: hek293
T1 sequence (Q9NPD5 whole entry): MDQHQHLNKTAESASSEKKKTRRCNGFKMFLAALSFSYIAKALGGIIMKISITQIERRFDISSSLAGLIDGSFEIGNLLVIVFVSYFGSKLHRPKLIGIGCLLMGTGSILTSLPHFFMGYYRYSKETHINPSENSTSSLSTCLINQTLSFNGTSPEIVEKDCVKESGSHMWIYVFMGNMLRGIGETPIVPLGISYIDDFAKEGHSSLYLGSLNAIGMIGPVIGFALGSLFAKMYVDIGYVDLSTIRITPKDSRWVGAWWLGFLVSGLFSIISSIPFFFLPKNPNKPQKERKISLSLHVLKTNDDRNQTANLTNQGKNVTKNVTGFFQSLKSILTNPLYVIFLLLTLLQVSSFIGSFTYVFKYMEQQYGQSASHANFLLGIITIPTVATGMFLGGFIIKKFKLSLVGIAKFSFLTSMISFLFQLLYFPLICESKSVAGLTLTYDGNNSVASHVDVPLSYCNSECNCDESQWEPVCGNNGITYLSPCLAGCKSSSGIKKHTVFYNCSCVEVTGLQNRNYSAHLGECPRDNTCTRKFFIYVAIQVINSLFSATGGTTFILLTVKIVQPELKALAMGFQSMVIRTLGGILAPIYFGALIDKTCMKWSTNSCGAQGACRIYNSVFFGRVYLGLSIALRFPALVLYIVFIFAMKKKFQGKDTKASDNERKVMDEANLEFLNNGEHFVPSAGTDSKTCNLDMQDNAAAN

[2] = target: T2, OATP8 (OATP1B3, SLCO1B3) (Homo sapiens, UniProt Q9NPD5); assay: as §1; details: HEK293 cells expressing OATP8
T2 sequence (Q9NPD5 whole entry): T1 sequence (Q9NPD5 whole entry)

[3] = target: T3, Solute carrier organic anion transporter family member 1B1 (Homo sapiens, UniProt Q9Y6L6); assay: (§2) TP_TRANSPORTER: uptake in OATP-C-expressing HEK293 cells
T3 sequence (Q9Y6L6 whole entry): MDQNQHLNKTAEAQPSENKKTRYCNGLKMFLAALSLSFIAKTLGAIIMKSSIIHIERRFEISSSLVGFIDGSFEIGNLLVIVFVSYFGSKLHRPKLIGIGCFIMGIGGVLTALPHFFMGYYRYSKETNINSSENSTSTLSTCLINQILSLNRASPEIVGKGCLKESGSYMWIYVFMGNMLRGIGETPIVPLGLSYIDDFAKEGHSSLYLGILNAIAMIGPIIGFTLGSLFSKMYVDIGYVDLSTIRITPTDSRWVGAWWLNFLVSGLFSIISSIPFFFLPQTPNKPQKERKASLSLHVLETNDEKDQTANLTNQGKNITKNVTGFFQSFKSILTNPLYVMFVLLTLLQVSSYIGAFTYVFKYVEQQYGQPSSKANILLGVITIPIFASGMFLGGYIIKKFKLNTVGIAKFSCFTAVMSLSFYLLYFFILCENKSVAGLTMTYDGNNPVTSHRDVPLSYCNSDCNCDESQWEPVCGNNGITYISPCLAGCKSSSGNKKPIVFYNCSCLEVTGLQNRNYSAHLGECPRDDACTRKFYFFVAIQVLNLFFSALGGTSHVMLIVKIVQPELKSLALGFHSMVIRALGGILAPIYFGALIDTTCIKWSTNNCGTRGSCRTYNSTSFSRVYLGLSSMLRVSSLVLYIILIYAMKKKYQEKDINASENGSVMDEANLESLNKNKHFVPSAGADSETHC

[4] = target: T1, Solute carrier organic anion transporter family member 1B3; assay: TP_TRANSPORTER: inhibition of E217betaG uptake (E217betaG: 2 uM, ICG: 10 uM) in OATP8-expressing HEK293 cells; details: hek293, 10 µM
[5] = target: T3, Solute carrier organic anion transporter family member 1B1; assay: TP_TRANSPORTER: inhibition of E217betaG uptake (E217betaG: 2 uM, ICG: 10 uM) in OATP-C-expressing HEK293 cells; details: hek293, 10 µM
[6] = target: T1, Solute carrier organic anion transporter family member 1B3; assay: TP_TRANSPORTER: inhibition of E217betaG uptake (E217betaG: 2 uM, Rifampicin: 75 uM) in OATP8-expressing HEK293 cells; details: hek293, 75 µM
[7] = target: T3, Solute carrier organic anion transporter family member 1B1; assay: TP_TRANSPORTER: inhibition of E217betaG uptake (E217betaG: 2 uM, Rifampicin: 75 uM) in OATP-C-expressing HEK293 cells; details: hek293, 75 µM
[8] = target: T1, Solute carrier organic anion transporter family member 1B3; assay: TP_TRANSPORTER: inhibition of E217betaG uptake (E217betaG: 2 uM, Rifamycin SV: 50 uM) in OATP8-expressing HEK293 cells; details: hek293, 50 µM
[9] = target: T3, Solute carrier organic anion transporter family member 1B1; assay: TP_TRANSPORTER: inhibition of E217betaG uptake (E217betaG: 2 uM, Rifamycin SV: 50 uM) in OATP-C-expressing HEK293 cells; details: hek293, 50 µM
[10] = target: T3, Solute carrier organic anion transporter family member 1B1; assay: TP_TRANSPORTER: inhibition of Bilirubin uptake (Bilirubin: 10 uM, BSP: 5 uM) in OATP-C-expressing HEK293 cells; details: hek293, 5 µM
[11] = substrate: C=CC1=C(C)/C(=C/c2[nH]c(Cc3[nH]c(/C=C4\NC(=O)C(C)=C4C=C)c(C)c3CCC(=O)O[C@@H]3OC(C(=O)O)[C@@H](O)C(O)C3O)c(CCC(=O)O)c2C)NC1=O; assay: as §2
[12] = substrate: C=CC1=C(C)/C(=C/c2[nH]c(Cc3[nH]c(/C=C4\NC(=O)C(C)=C4C=C)c(C)c3CCC(=O)O[C@@H]3O[C@@H](C(=O)O)[C@H](O)[C@@H](O)[C@@H]3O)c(CCC(=O)O[C@@H]3O[C@H](C(=O)O)[C@H](O)[C@H](O)[C@@H]3O)c2C)NC1=O; assay: as §2
[13] = substrate: C[C@]12CC[C@@H]3c4ccc(OS(=O)(=O)O)cc4CC[C@H]3[C@@H]1CCC2=O; assay: as §2
[14] = substrate: O=C1OC(c2ccc(O)c(S(=O)(=O)O)c2)(c2ccc(O)c(S(=O)(=O)O)c2)c2c(Br)c(Br)c(Br)c(Br)c21; assay: as §2
[15] = substrate: [H][C@@]12CC=C3C[C@@H](OS(=O)(=O)O)CC[C@]3(C)[C@@]1([H])CC[C@]1(C)C(=O)CC[C@@]21[H]; assay: as §2

## C=CC1=C(C)/C(=C/c2[nH]c(Cc3[nH]c(/C=C4\NC(=O)C(C)=C4C=C)c(C)c3CCC(=O)O[C@@H]3O[C@@H](C(=O)O)[C@H](O)[C@@H](O)[C@@H]3O)c(CCC(=O)O[C@@H]3O[C@H](C(=O)O)[C@H](O)[C@H](O)[C@@H]3O)c2C)NC1=O
[1]
  Activity: is not a substrate [-]

## C=CC1=C(C)/C(=C/c2[nH]c(Cc3[nH]c(/C=C4\NC(=O)C(C)=C4C=C)c(C)c3CCC(=O)O[C@@H]3OC(C(=O)O)[C@@H](O)C(O)C3O)c(CCC(=O)O)c2C)NC1=O (some centres not stated) [BILIRUBIN MONOGLUCURONIDE]
[2]
  Km: 0.5 µM

## C=CC1=C(C)/C(=C/c2[nH]c(Cc3[nH]c(/C=C4\NC(=O)C(C)=C4C=C)c(C)c3CCC(=O)O)c(CCC(=O)O)c2C)NC1=O [BILIRUBIN]
[3]
  Activity: substrate [+]

## C[C@]12CC[C@@H]3c4ccc(OS(=O)(=O)O)cc4CC[C@H]3[C@@H]1CCC2=O [ESTRONE SULFURIC ACID]
[1]
  Activity: is not a substrate [-]

## CC1(C)C(/C=C/C=C/C=C/C=C2/N(CCCCS(=O)(=O)[O-])c3ccc4ccccc4c3C2(C)C)=[N+](CCCCS(=O)(=O)[O-])c2ccc3ccccc3c21.[Na+] [INDOCYANINE GREEN]
[4]
  Activity: is not an inhibitor [-]
[5]
  Activity: inhibitor [(at a rough estimate) 5 % of control]

## C[C@]12CC[C@H](OS(=O)(=O)O)CC1=CC[C@@H]1[C@@H]2CC[C@]2(C)C(=O)CC[C@@H]12 [PRASTERONE SULFURIC ACID]
[2]
  Km: > 30 µM

## CO[C@H]1/C=C/O[C@@]2(C)Oc3c(C)c(O)c4c(O)c(c(/C=N/N5CCN(C)CC5)c(O)c4c3C2=O)NC(=O)/C(C)=C\C=C\[C@H](C)[C@H](O)[C@@H](C)[C@@H](O)[C@@H](C)[C@H](OC(C)=O)[C@@H]1C [RIFAMPIN]
[6]
  Activity: inhibitor [(at a rough estimate) 10 % of control]
[7]
  Activity: inhibitor [(at a rough estimate) 20 % of control]

## CO[C@H]1/C=C/O[C@@]2(C)Oc3c(C)c(O)c4c(O)c(cc(O)c4c3C2=O)NC(=O)/C(C)=C\C=C\[C@H](C)[C@H](O)[C@@H](C)[C@@H](O)[C@@H](C)[C@H](OC(C)=O)[C@@H]1C [RIFAMYCIN]
[8]
  Activity: inhibitor [(at a rough estimate) 35 % of control]
[9]
  Activity: inhibitor [(at a rough estimate) 20 % of control]

## O=C1OC(c2ccc(O)c(S(=O)(=O)[O-])c2)(c2ccc(O)c(S(=O)(=O)[O-])c2)c2c(Br)c(Br)c(Br)c(Br)c21.[Na+].[Na+] [SULFOBROMOPHTHALEIN SODIUM]
[10]
  Activity: inhibitor [(at a rough estimate) 15 % of control]

B1: Solute carrier organic anion transporter family member 1B1 (Homo sapiens) (protein)
chain: T3 sequence (Q9Y6L6 whole entry)
[11]
  Km: 0.1 µM
[12]
  Km: 0.28 µM
[13]
  Km: 12.5 µM
[14]
  Km: 0.14 µM
[15]
  Km: 21.5 µM

From ChEMBL document CHEMBL2074120, “Hepatic uptake of bilirubin and its conjugates by the human organic anion transporter SLC21A6” (J Biol Chem, 2001)
